{"source": "patent US20180263245A1", "about": "“WATER-BASED DISINFECTANT” (priority 2015, published 2018)", "origin": "cited, not measured here", "key": {"[1]": {"conditions": "EPA"}, "[2]": {"test_system": "bacteria", "conditions": "without the Cu π-complex"}}, "data": [{"smiles": "CCCCCCCCCCCC[N+](C)(C)Cc1ccccc1.[Cl-]", "note": "[C12 Quaternary Ammonium Chloride, Dodecyl Dimethyl Benzyl Ammonium Chloride]", "values": [{"measurement": "genetic toxicity", "setting": "[1]", "result": "does not believe it is a genetic toxicant"}, {"measurement": "reproductive risks", "setting": "[1]", "result": "does not believe it poses unacceptable reproductive risks"}, {"measurement": "tumors", "setting": "[1]", "result": "negative for introduction of tumors"}, {"measurement": "bacterial reduction versus FDA minimum performance standards", "setting": "[2]", "result": "exceeded the FDA-indicated minimum performance standards"}]}]}
